Test results published in US20240360165A1, “INHIBITORS OF CYCLIN DEPENDENT KINASE 7 (CDK7)” (Syros Pharmaceuticals, Inc., priority 2016, published 2024).
Like-named read-outs stand apart in the source and are kept apart here.

Columns and labels:
A673 cells = assay: Inhibition of proliferation of A673 cells (CyQUANT, 72 hour); assay type: cell-based, human; details: A673 cells, 72 hour, CyQUANT, read-out: Inhibition of Proliferation of A673 Cells (calculated IC50)
How it was run: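 Proliferation read-out by CyQUANT after a 72 h exposure, compounds spanning 4 μM–[…] in half-log steps. A673 cells cultured at 37° C under 5% CO2 in DMEM supplemented with 10% FBS plus 1 mM sodium pyruvate.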

[1] = biological target: T1, CDK12 (aa686-1082)/Cyclin K complex (Homo sapiens, UniProt Q9NYV4); assay: CDK12 inhibition assay (Caliper/LabChip EZ Reader kinase assay); assay type: biochemical; details: Table 1, CDK12 (aa686-1082)/Cyclin K 50 nM, ATP 2 mM, 3 hr at 27° C.
T1 construct: CDK12 (aa686-1082)/Cyclin K complex
T1 sequence (Q9NYV4 686-1082, species assumed): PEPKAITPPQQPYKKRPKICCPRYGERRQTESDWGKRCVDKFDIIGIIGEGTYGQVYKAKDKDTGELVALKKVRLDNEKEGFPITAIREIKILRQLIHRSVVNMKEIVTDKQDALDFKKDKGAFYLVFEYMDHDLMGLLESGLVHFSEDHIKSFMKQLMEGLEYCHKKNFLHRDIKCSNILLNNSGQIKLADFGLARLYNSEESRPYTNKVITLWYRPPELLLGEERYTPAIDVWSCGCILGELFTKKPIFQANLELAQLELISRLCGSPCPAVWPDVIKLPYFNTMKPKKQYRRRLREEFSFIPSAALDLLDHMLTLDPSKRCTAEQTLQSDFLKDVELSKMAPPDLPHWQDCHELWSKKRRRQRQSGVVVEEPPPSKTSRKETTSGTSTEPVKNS
T1 sequence (O75909 whole entry partner, species assumed, the tested form may be a part): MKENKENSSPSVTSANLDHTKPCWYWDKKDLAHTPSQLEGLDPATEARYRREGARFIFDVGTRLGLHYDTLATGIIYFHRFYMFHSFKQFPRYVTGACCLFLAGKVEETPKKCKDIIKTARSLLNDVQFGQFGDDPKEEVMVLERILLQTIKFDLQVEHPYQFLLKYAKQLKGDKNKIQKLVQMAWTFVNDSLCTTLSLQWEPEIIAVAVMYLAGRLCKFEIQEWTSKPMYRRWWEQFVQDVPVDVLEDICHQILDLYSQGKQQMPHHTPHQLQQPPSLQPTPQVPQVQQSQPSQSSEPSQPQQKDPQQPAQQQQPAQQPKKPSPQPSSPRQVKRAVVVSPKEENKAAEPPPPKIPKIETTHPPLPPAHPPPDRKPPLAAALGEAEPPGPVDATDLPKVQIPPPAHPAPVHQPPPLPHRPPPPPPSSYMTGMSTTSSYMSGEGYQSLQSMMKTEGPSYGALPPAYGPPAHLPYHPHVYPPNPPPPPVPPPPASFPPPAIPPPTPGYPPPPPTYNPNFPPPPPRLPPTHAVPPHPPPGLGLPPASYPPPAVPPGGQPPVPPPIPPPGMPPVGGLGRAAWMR

CDK9/Cyclin T1 complex = CDK9/Cyclin T1 complex (Homo sapiens, UniProt P50750); assay: CDK9 inhibition assay (Caliper/LabChip EZ Reader kinase assay); assay type: biochemical; details: Table 1, CDK9/Cyclin T1 8 nM, ATP 2 mM, 15 min at 27° C.
Chain of CDK9/Cyclin T1 complex (P50750 whole entry, species assumed): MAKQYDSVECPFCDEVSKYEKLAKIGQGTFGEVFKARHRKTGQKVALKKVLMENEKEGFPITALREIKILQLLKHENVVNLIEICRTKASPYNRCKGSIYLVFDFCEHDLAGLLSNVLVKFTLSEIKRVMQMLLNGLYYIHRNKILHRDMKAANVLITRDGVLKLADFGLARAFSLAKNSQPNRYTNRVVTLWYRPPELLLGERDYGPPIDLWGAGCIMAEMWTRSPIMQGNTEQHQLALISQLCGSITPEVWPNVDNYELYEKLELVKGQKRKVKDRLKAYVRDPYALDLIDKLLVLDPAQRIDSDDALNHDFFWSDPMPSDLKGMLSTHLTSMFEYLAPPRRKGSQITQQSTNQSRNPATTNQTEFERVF
Chain of CDK9/Cyclin T1 complex (O60563 whole entry partner, species assumed): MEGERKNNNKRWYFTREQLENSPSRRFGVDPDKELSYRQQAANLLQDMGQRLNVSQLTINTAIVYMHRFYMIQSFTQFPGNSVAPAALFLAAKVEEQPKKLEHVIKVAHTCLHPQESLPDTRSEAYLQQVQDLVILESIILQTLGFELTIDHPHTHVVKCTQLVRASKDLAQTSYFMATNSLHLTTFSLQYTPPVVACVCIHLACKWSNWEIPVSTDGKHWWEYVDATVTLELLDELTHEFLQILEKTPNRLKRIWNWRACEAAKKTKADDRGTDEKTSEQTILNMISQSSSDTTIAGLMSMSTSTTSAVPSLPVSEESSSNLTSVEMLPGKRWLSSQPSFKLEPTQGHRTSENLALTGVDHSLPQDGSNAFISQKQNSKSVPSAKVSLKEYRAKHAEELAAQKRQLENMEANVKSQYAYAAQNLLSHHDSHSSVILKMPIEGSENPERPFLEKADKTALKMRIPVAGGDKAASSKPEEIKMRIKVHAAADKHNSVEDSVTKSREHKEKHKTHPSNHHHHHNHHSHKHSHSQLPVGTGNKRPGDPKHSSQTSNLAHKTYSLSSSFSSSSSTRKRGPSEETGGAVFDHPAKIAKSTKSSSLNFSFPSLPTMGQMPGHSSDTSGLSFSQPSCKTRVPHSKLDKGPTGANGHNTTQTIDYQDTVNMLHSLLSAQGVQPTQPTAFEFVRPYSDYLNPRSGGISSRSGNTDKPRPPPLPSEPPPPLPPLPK
How it was run: (§1)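 Activity read as fluorescent peptide conversion on a LabChip EZ Reader. For CDK2/Cyclin E1 (0.5 nM), substrate was 5-FAM-CDK7tide (2 μM) with 2 mM MgCl2; for CDK9/Cyclin T1 (8 nM), 5-FAM-CDK9tide (2 μM) with 10 mM MgCl2.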

[2] = biological target: CDK7/Cyclin H/MAT1 complex (Homo sapiens, UniProt P50613); assay: CDK7 inhibition assay (Caliper/LabChip EZ Reader kinase assay); assay type: biochemical; details: Table 1, CDK7/Cyclin H/MAT1 6 nM, ATP 2 mM, 35 min at 27° C.
Chain of CDK7/Cyclin H/MAT1 complex (P50613 whole entry, species assumed): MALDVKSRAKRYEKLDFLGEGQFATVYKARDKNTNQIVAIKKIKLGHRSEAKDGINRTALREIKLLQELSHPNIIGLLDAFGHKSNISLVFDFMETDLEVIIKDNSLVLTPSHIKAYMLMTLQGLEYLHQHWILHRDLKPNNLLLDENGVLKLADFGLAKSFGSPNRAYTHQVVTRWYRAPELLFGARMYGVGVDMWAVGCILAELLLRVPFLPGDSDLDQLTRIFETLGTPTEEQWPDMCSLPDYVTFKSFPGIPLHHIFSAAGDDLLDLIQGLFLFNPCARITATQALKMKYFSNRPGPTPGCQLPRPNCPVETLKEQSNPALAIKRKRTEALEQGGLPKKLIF
Chain of CDK7/Cyclin H/MAT1 complex (P51946 whole entry partner, species assumed): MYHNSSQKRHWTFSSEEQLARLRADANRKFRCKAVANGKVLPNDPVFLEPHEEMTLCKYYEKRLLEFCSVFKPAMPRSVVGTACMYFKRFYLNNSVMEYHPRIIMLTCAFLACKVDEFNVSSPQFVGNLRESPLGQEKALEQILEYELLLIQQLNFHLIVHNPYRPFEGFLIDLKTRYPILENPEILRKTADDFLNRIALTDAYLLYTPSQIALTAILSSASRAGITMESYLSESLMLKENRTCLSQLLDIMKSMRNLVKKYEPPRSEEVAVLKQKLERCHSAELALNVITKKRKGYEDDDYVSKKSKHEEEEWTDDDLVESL
Chain of CDK7/Cyclin H/MAT1 complex (P51948 whole entry partner, species assumed): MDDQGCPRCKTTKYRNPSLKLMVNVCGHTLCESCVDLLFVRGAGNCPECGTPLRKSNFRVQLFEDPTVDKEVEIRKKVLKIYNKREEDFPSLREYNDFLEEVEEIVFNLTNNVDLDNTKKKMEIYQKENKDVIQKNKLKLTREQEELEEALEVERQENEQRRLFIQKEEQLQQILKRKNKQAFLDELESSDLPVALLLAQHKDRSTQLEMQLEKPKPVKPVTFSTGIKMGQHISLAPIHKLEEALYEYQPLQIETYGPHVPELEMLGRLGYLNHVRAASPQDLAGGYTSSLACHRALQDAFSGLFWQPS
How it was run: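 A Perkin Elmer Caliper/LabChip EZ Reader (Waltham, MA) platform served as the basis for this CDK7 kinase inhibition assay. The work was carried out by Biortus Biosciences, located in Jiangyin, Jiangsu Province, P.R. of China. Each CDK studied had its own kinase assay, and compounds were evaluated for their ability to block CDK7 activity.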

CDK2/Cyclin E1 complex = CDK2/Cyclin E1 complex (Homo sapiens, UniProt P24941); assay: CDK2 inhibition assay (Caliper/LabChip EZ Reader kinase assay); assay type: biochemical; details: Table 1, CDK2/Cyclin E1 0.5 nM, ATP 2 mM, 35 min at 27° C.
How it was run: as §1

HCC70 cells = assay: Inhibition of proliferation of HCC70 cells (CyQUANT Direct Cell Proliferation Assay, 72 hour); assay type: cell-based, human; details: read-out: Inhibition of Proliferation of HCC70 Cells (calculated IC50)
How it was run: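 Human triple-negative breast cancer HCC70 cells cultured at 37° C, 5% CO2, with compound for 72 hour. Anti-proliferative effect read by CyQUANT Direct Cell Proliferation Assay. Dinaciclib, a CDK inhibitor analog and triptolide served as positive controls.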

IC50 [1] | IC50 (CDK9/Cyclin T1 complex) | IC50 [2] | IC50 (CDK2/Cyclin E1 complex) | IC50 ([1]; listed as 128) | IC50 (CDK9/Cyclin T1 complex; listed as 128) | IC50 ([2]; listed as 128) | IC50 (CDK2/Cyclin E1 complex; listed as 128) | Compound | IC50 (A673 cells) | IC50 (HCC70 cells; Homo sapiens, HCC70, 72 h) | IC50 (A673 cells; Homo sapiens, A673, 72 h) | IC50 (HCC70 cells)
200 to 5000 nM | > 5000 nM | < 20 nM | 200 to 5000 nM |  |  |  |  | O=C(C1CCC(Nc2ncc(C(F)(F)F)c(-c3c[nH]c4ccccc34)n2)CN1)N1CCC(O)C1 (mixture of isomers) [Compound 250] | 200 to 5000 nM | 1000 to 5000 nM |  | 
200 to 5000 nM | 200 to 5000 nM | < 20 nM | 200 to 5000 nM |  |  |  |  | CCc1cnc(NC2CCCNC2)nc1-c1c[nH]c2c(F)cccc12 (centres unmarked) [Compound 144] |  | 100 to 1000 nM | 20 to 200 nM | 
20 to 200 nM | 200 to 5000 nM | < 20 nM | 200 to 5000 nM |  |  |  |  | FC(F)(F)c1cnc(N[C@H]2CCCNC2)nc1-c1c[nH]c2c(-c3cn[nH]c3)cccc12 [Compound 170] |  | < 100 nM | < 20 nM | 
200 to 5000 nM | 200 to 5000 nM | < 20 nM | 200 to 5000 nM |  |  |  |  | CN1CCN(c2cccc3c(-c4nc(N[C@H]5CCCNC5)ncc4C(F)(F)F)c[nH]c23)C1=O [Compound 176] |  | 100 to 1000 nM | < 20 nM | 
20 to 200 nM | 200 to 5000 nM | < 20 nM | 20 to 200 nM |  |  |  |  | FC(F)(F)c1cnc(N[C@H]2CCCNC2)nc1-c1c[nH]c2c(-c3ccnnc3)cccc12 [Compound 180] |  | < 100 nM | < 20 nM | 
> 5000 nM | > 5000 nM | 20 to 200 nM | > 5000 nM |  |  |  |  | CCCc1cnc(N[C@H]2CCCNC2)nc1-c1c[nH]c2c(S(C)(=O)=O)c(C#N)ccc12 [Compound 367, 7-methylsulfonyl-3-[2-[[(3S)-3-piperidyl]amino]-5-propyl-pyrimidin-4-yl]-1H-indole-6-carbonitrile] |  | 1000 to 5000 nM |  | 
200 to 5000 nM | > 5000 nM | 20 to 200 nM | > 5000 nM | > 5000 nM | > 5000 nM | > 5000 nM | > 5000 nM | N#Cc1ccc2c(-c3nc(N[C@@H]4CNC[C@@H](F)C4)ncc3C(F)(F)F)c[nH]c2c1 [Compound 368, 3-[2-[[(3S,5S)-5-fluoro-3-piperidyl]amino]-5-(trifluoromethyl)pyrimidin-4-yl]-1H-Indole-6-carbonitrile] |  | 1000 to 5000 nM |  | 
200 to 5000 nM | 200 to 5000 nM | < 20 nM | 200 to 5000 nM |  |  |  |  | CC1(C)CNC[C@@H](Nc2ncc(Cl)c(-c3c[nH]c4c(S(C)(=O)=O)c(C#N)ccc34)n2)C1 [Compound 382, 3-[5-chloro-2-[[(3S)-5,5-dimethyl-3-piperidyl]amino]pyrimidin-4-yl]-7-methylsulfonyl-1H-indole-6-carbonitrile] |  | < 100 nM |  | 

The remaining lines, values behind:

Compound | IC50 [1] | IC50 (CDK9/Cyclin T1 complex) | IC50 [2] | IC50 (CDK2/Cyclin E1 complex) | IC50 ([1]; listed as 128) | IC50 (CDK9/Cyclin T1 complex; listed as 128) | IC50 ([2]; listed as 128) | IC50 (CDK2/Cyclin E1 complex; listed as 128) | IC50 (A673 cells) | IC50 (HCC70 cells; Homo sapiens, HCC70, 72 h) | IC50 (A673 cells; Homo sapiens, A673, 72 h) | IC50 (HCC70 cells)
CC1(O)CCN(C(=O)c2ccc3c(-c4nc(N[C@H]5CCCNC5)ncc4C(F)(F)F)c[nH]c3c2)C1 (single isomer, unassigned) [Compound 221] | > 5000 nM | > 5000 nM | < 20 nM | > 5000 nM |  |  |  |  |  | 100 to 1000 nM | 200 to 5000 nM | 
Cc1n[nH]cc1-c1cccc2c(-c3nc(NC4CCCNC4)ncc3C(F)(F)F)c[nH]c12 (stereo in doubt) [Compound 175] | 200 to 5000 nM | 20 to 200 nM | < 20 nM | 200 to 5000 nM |  |  |  |  |  | 1000 to 5000 nM | < 20 nM | 
FC(F)(F)c1cnc(N[C@H]2CCCNC2)nc1-c1n[nH]c2ccccc12 [Compound 103] | 20 to 200 nM | 200 to 5000 nM | < 20 nM | 200 to 5000 nM |  |  |  |  |  | < 100 nM | 20 to 200 nM | 
O=C1CC[C@H](Nc2ncc(Cl)c(-c3c[nH]c4ccccc34)n2)CN1 [Compound 159] | 200 to 5000 nM | 200 to 5000 nM | 20 to 200 nM | 20 to 200 nM |  |  |  |  |  | 1000 to 5000 nM | 200 to 5000 nM | 
OC1CCC(c2cccc3c(-c4nc(N[C@H]5CCCNC5)ncc4C(F)(F)F)c[nH]c23)CC1 (some centres unmarked) [Compound 185] | 200 to 5000 nM | 200 to 5000 nM | < 20 nM | 20 to 200 nM |  |  |  |  | < 20 nM |  |  | < 100 nM
CCc1cnc(N[C@H]2CCCNC2)nc1-c1c[nH]c2c(F)c(C#N)ccc12 [Compound 360, 3-[5-ethyl-2-[[(3S)-3-piperidyl]amino]pyrimidin-4-yl]-7-fluoro-1H-indole-6-carbonitrile] | > 5000 nM | > 5000 nM | 20 to 200 nM | > 5000 nM |  |  |  |  |  | 1000 to 5000 nM |  | 
N#Cc1ccc2c(-c3nc(N[C@H]4CCCNC4)ncc3SC(F)F)c[nH]c2c1 [Compound 361, 3-[5-(difluoromethylsulfanyl)-2-[[(3S)-3-piperidyl]amino]pyrimidin-4-yl]-1H-indole-6-carbonitrile] | 200 to 5000 nM | 200 to 5000 nM | 20 to 200 nM | > 5000 nM |  |  |  |  |  | 100 to 1000 nM |  | 
CN1CCC[C@H](Nc2ncc(C(F)(F)F)c(-c3c[nH]c4cc(S(C)(=O)=O)ccc34)n2)C1 [Compound 364, N-[(3S)-1-methyl-3-piperidyl]-4-(6-methylsulfonyl-1H-indol-3-yl)-5-(trifluoromethyl)pyrimidin-2-amine] | > 5000 nM | > 5000 nM | 20 to 200 nM | > 5000 nM |  |  |  |  |  | 1000 to 5000 nM |  | 
O=S(=O)(CF)c1ccc2c(-c3nc(N[C@H]4CCCNC4)ncc3C(F)(F)F)c[nH]c2c1 [Compound 365, 4-[6-(fluoromethylsulfonyl)-1H-indol-3-yl]-N-[(3S)-3-piperidyl]-5-(trifluoromethyl)pyrimidin-2-amine] | 200 to 5000 nM | 200 to 5000 nM | < 20 nM | 200 to 5000 nM |  |  |  |  |  | 100 to 1000 nM |  | 
CN(C)S(=O)(=O)c1cccc2c(-c3nc(NC4CCCNC4)ncc3C(F)(F)F)c[nH]c12 (centres unmarked) [Compound 371] | 200 to 5000 nM | 200 to 5000 nM | < 20 nM | 200 to 5000 nM |  |  |  |  |  | < 100 nM |  | 
FC(F)Sc1ccc2c(-c3nc(N[C@H]4CCCNC4)ncc3C(F)(F)F)c[nH]c2c1 [Compound 374, 4-[6-(difluoromethylsulfanyl)-1H-indol-3-yl]-N-[(3S)-3-piperidyl]-5-(trifluoromethyl) pyrimidin-2-amine] | 20 to 200 nM | 200 to 5000 nM | < 20 nM | 200 to 5000 nM |  |  |  |  |  | < 100 nM |  | 
O=S(=O)(c1ccc2c(-c3nc(N[C@H]4CCCNC4)ncc3C(F)(F)F)c[nH]c2c1)C(F)F [Compound 375, 4-[6-(difluoromethylsulfonyl)-1H-indol-3-yl]-N-[(3S)-3-piperidyl]-5-(trifluoromethyl)pyrimidin-2-amine] | 200 to 5000 nM | 200 to 5000 nM | < 20 nM | 200 to 5000 nM |  |  |  |  |  | 100 to 1000 nM |  | 
CC1(C)CNC[C@@H](Nc2ncc(C(F)(F)F)c(-c3c[nH]c4cc(S(C)(=O)=O)ccc34)n2)C1 [Compound 376, N-[(3S)-5,5-dimethyl-3-piperidyl]-4-(6-methylsulfonyl-1H-indol-3-yl)-5-(trifluoromethyl) pyrimidin-2-amine] | 200 to 5000 nM | > 5000 nM | 20 to 200 nM | 200 to 5000 nM |  |  |  |  |  | 100 to 1000 nM |  | 
CCP(=O)(CC)c1ccc2c(-c3nc(N[C@H]4CCCNC4)ncc3C(F)(F)F)c[nH]c2c1 [Compound 379] | > 5000 nM | > 5000 nM | 20 to 200 nM | > 5000 nM |  |  |  |  |  | 1000 to 5000 nM |  | 
[O-][S+](c1ccc2c(-c3nc(N[C@H]4CCCNC4)ncc3C(F)(F)F)c[nH]c2c1)C(F)F (stereo partly drawn) [Compound 380, 4-[6-(difluoromethylsulfinyl)-1H-indol-3-yl]-N-[(3S)-3-piperidyl]-5-(trifluoromethyl) pyrimidin-2-amine] | 200 to 5000 nM | 200 to 5000 nM | < 20 nM | 200 to 5000 nM |  |  |  |  |  | < 100 nM |  | 
CS(=O)(=O)c1ccc2c(-c3nc(N[C@H]4CCCN(C5CC5)C4)ncc3C(F)(F)F)c[nH]c2c1 [Compound 381, N-[(3S)-1-cyclopropyl-3-piperidyl]-4-(6-methylsulfonyl-1H-indol-3-yl)-5-(trifluoromethyl) pyrimidin-2-amine] | 200 to 5000 nM | > 5000 nM | 20 to 200 nM | > 5000 nM |  |  |  |  |  | 1000 to 5000 nM |  | 
